Data reported in patent publication US8012944B2, “Method for treating cancer using IAP antisense oligomer and chemotherapeutic agent” (Pharmascience Inc., priority 2003, dated 2011).
Oligonucleotides are written 5' to 3', each unit as a sugar letter and its base; * is a phosphorothioate linkage, no mark a phosphodiester; rarer units and linkages stand in square brackets, end groups in braces. Plain capitals give the bases only. d = 2'-deoxy (DNA); m = 2'-O-methyl

What was measured:
Assay type in all cases: cell-based, human
[1] = tested on: XIAP RNA; experiment: XIAP RNA knock-down in T24 cells (TaqMan quantitative PCR)
Source text: (§1) We used TaqMan quantitative PCR (described below) to assay for changes in mRNA levels after oligonucleotide treatment. We employed ELISA for determining XIAP protein levels and western blotting for determining HIAP1 protein levels. Transfection conditions were optimized with Lipofectamine plus or Lipofectamine 2000 (Life Technologies, Canada) on T24 bladder carcinoma cells or H460 non-small cell lung carcinoma cells, or lipofectin on SF-295 glioblastoma cells, using a fluorescein-tagged sense oligonucleotide (5′-mGmAGAAGATGACTGGTAAmCmA-3′; SEQ ID NO: 261) from XIAP spanning the start codon as a control. The results were visualized and gauged by epi-fluorescence microscopy. In the case of T24 cells, transfections were further optimized based on the ability of a published oligonucleotide to downregulate survivin expression (Li et al., Nat. Cell Biol. 1:461-466, 1999) (5′-U/TGTGCTATTCTGTGAAU/TU/T-3′ SEQ ID NO: 262). We optimized the transfection conditions based on the TaqMan results of survivin RNA knock-down detected with PCR primers and fluorescent probe, described in detail below. […] We then applied these conditions to screen for XIAP protein knock-down using the oligo library against T24 cells.
RNA was extracted from cells lysed in RLT buffer (QIAGEN, Valencia, Calif.), and purified using QIAGEN RNeasy columns/kits. Real-time quantitative PCR was performed on a Perkin-Elmer ABI 7700 Prism PCR machine. RNA was reverse transcribed and amplified according to the TaqMan Universal PCR Master Mix protocol of PE Biosystems, using primers and probes designed to specifically recognize XIAP, HIAP1, survivin, or GAPDH. For human survivin, the forward primer was 5′-[…]-3′ (SEQ ID NO: 263), the reverse primer was 5′-GAAAGGAAAGCGCAACCG-3′ (SEQ ID NO: 264), and the probe was 5′-(FAM)[…](TAMRA)-3′ (SEQ ID NO: 265). For human HIAP1, the forward primer was 5′-[…]-3′ (SEQ ID NO: 266), the reverse primer was 5′-[…]-3′ (SEQ ID NO: 267), and the probe was 5′-(FAM)[…](TAMRA)-3′ (SEQ ID NO: 268). For human XIAP, the forward primer was 5′-[…]-3′ (SEQ ID NO: 269), the reverse primer was 5′-[…]-3′ (SEQ ID NO: 270), and the probe was 5′-(FAM)[…](TAMRA)-3′ (SEQ ID NO: 271). For human GAPDH, the forward primer was 5′-GAAGGTGAAGGTCGGAGTC-3′ (SEQ ID NO: 272), the reverse primer was 5′-GAAGATGGTGATGGGATTC-3′ (SEQ ID NO: 273), and the probe was 5′-(JOE)[…](TAMRA)-3′ (SEQ ID NO: 274). FAM is 6-carboxyfluoroscein, JOE is 6-carboxy-4,5-dichloro-2,7-dimethoxyfluoroscein, and TAMRA is 6-carboxy-N,N,N′,N′-tetramethylrhodamine. FAM and JOE are 5′ reporter dyes, while TAMRA is a 3′ quencher dye.
Relative quantification of gene expression was performed as described in the PE Biosystems manual using GAPDH as an internal standard. The comparative Ct (cycle threshold) method was used for relative quantitation of IAP mRNA levels compared to GAPDH mRNA levels. Briefly, real-time fluorescence measurements were taken at each PCR cycle and the threshold cycle (Ct) value for each sample was calculated by determining the point at which fluorescence exceeded a threshold limit of 30 times the baseline standard deviation. The average baseline value and the baseline SD are calculated starting from the third cycle baseline value and stopping at the baseline value three cycles before the signal starts to exponentially rise. The PCR primers and/or probes for the specific IAPs were designed to span at least one exon-intron boundary separated by 1 kb or more of genomic DNA, to reduce the possibility of amplifying and detecting genomic DNA contamination. The specificity of the signal, and possible contamination from DNA, were verified by treating some RNA samples with either DNase or RNase, prior to performing the reverse transcription and PCR reaction steps.
The XIAP synthetic library of 96 antisense oligonucleotides was first screened for decreases in XIAP protein levels. […]

[2] = tested on: XIAP protein; experiment: XIAP protein knock-down in T24 cells (XIAP ELISA, relative to total protein); conditions: for XIAP protein levels relative to total protein, compared to mock transfection (in words): first screen of the library
Source text: as §1
A standard colorimetric XIAP ELISA assay was performed using an affinity-purified rabbit polyclonal antibody to XIAP as a capture antibody, and was detected with a XIAP monoclonal antibody (MBL, Japan) and a biotinylated anti-mouse Ig antibody and horseradish peroxidase-conjugated streptavidin and TMB substrate. Alternatively, a polyclonal XIAP or HIAP1 antibody may be used to measure XIAP or HIAP1 protein levels, respectively.
The XIAP synthetic library of 96 antisense oligonucleotides was first screened for decreases in XIAP protein levels. Specifically, T24 cells (1.5×10^4 cells/well) were seeded in wells of a 96-well plate on day 1, and were cultured in antibiotic-free McCoy's medium for 24 hours. On day 2, the cells were transfected with XIAP antisense oligonucleotides as described above (oligonucleotides are labeled according to their plated position, i.e., A1 to H12, and include two repeats, A13 and B13 that contain lyophilized DNA pellets that stuck to the sealing membrane). Briefly, the nucleobase oligomers were diluted in 10 μl/well of serum-free, antibiotic-free McCoy's medium and then PLUS reagent was added. Lipofectamine was diluted in 10 μl/well of serum-free, antibiotic-free McCoy's medium, and both mixes were incubated for 15 minutes at room temperature. The mixes were then combined and incubated for 15 minutes at room temperature.
In the meantime, the complete medium was removed from the cells and 50 μl/well of serum-free, antibiotic-free medium was added to the cells. The transfection mixes were added to the well, and the cells were incubated for three hours. Then 30 μl/well of serum-free, antibiotic-free medium and 100 μl/well of antibiotic-free complete medium, containing 20% fetal bovine serum were added to each well.
At day 3, XIAP RNA levels were measured using quantitative real-time PCR techniques, as described above. At day 4, XIAP protein levels were measured by ELISA (FIGS. 1A, 1C, 1E, 1G, 1I, and 1K), and total cellular protein was measured biochemically (FIGS. 1B, 1D, 1F, 1H, 1J, and 1L; used to normalize the XIAP protein levels). The results were compared to a mock transfection sample (treated with the transfection agent but no oligonucleotide DNA was added, and then processed as for the other samples). Time course experiments determined that the optimal time for protein knock-down to be around 12 to 24 hours. […]

[3] = tested on: XIAP mRNA; experiment: XIAP mRNA knock-down in H460 cells (real-time RT-PCR / TaqMan)
Procedure, shortened: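 NCI-H460 cells transfected with phosphorothioate antisense oligonucleotides via Lipofectamine 2000; RNA isolated after 6 h treatment. XIAP mRNA quantified by one-step TaqMan real-time RT-PCR, comparative Ct (threshold 30× baseline SD), normalized to GAPDH and expressed relative to untreated control cells.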

[4] = tested on: XIAP mRNA; experiment: as above; conditions: 2 × 2 MBO; NCI-H460 cells, 9 hours post-transfection; relative level (mock control 1.01)

“TGCCAGTGTTGATGCTGAA (antisense; chemistry not fully specified) [Code C4]” was tested, and the “XIAP down-regulation T24 RNA” value [1] was 28%, the “XIAP down-regulation T24 protein” value [2] was 56% and the “XIAP protein levels relative to total protein, compared to mock transfection (in words)” value [2] was “some decrease”. The “XIAP down-regulation H460 RNA” value [3] was 77% and the “XIAP RNA” value [4] was 0.22.

“GTATAAAGAAACCCTGCTC (antisense; sugars from the 5' end m2 d15 m2, backbone and T or U not given here; further chemistry not fully specified) [Code D4]” was tested, and the “XIAP down-regulation T24 RNA” value [1] was 12%, the “XIAP down-regulation T24 protein” value [2] was 43% and the “XIAP protein levels relative to total protein, compared to mock transfection (in words)” value [2] was “some decrease”. For the same sequence, the “XIAP down-regulation H460 RNA” value [3] was 51% and the “XIAP RNA” value [4] was 0.48.

In the case of “GAAAGGACTTTACTTTATC (antisense; sugars from the 5' end m2 d15 m2, backbone, methylation of C and T or U not given here; further chemistry not fully specified) [Code D8]”, the “XIAP down-regulation T24 RNA” value [1] is reported as 38%, the “XIAP down-regulation T24 protein” value [2] is reported as 26% and the “XIAP protein levels relative to total protein, compared to mock transfection (in words)” value [2] is reported as “some decrease”. For the same sequence, the “XIAP down-regulation H460 RNA” value [3] was 49% and the “XIAP RNA” value [4] was 0.55.

With “GCTGAGTCTCCATATTGCC [G4] (chemistry not fully specified) [Code G4]” the “XIAP down-regulation T24 RNA” value [1] was 34%, the “XIAP down-regulation T24 protein” value [2] was 48% and the “XIAP protein levels relative to total protein, compared to mock transfection (in words)” value [2] was “some decrease”. For the same sequence, the “XIAP down-regulation H460 RNA” value [3] was 51%.

“GTTGTTCCCAAGGGTCTTC (antisense; sugars from the 5' end m2 d15 m2, backbone, methylation of C and T or U not given here; further chemistry not fully specified) [Code E8]” was tested, and the “XIAP down-regulation T24 RNA” value [1] was 72%, the “XIAP down-regulation T24 protein” value [2] was 56% and the “XIAP down-regulation H460 RNA” value [3] was 44%.

For “AATATGTAAACTGTGATGC (mA*mAdTdAdTdGdTdAdAdAdCdTdGdTdGdAdTmG*mC; antisense) [Code C2]”, the “XIAP down-regulation T24 RNA” value [1] was 36%, the “XIAP down-regulation T24 protein” value [2] was 45% and the “XIAP protein levels relative to total protein, compared to mock transfection (in words)” value [2] was “some decrease”. For the same sequence, the “XIAP down-regulation H460 RNA” value [3] was 70% and the “XIAP RNA” value [4] was 0.33.

“CTTGTCCACCTTTTCTAAA (antisense; sugars from the 5' end m2 d15 m2, backbone and T or U not given here; further chemistry not fully specified) [Code E3]” was tested, and the “XIAP down-regulation T24 RNA” value [1] was 53%, the “XIAP down-regulation T24 protein” value [2] was 64% and the “XIAP protein levels relative to total protein, compared to mock transfection (in words)” value [2] was “some decrease”. For the same sequence, the “XIAP down-regulation H460 RNA” value [3] was 55% and the “XIAP RNA” value [4] was 0.48.

“GAAAGTAATATTTAAGCAG (antisense; chemistry not fully specified) [Code E2]” was tested, and the “XIAP down-regulation T24 RNA” value [1] was 54%, the “XIAP down-regulation T24 protein” value [2] was 51% and the “XIAP protein levels relative to total protein, compared to mock transfection (in words)” value [2] was “some decrease”. For the same sequence, the “XIAP down-regulation H460 RNA” value [3] was 60%.
